This is an account of results in US4000269A, “S-(α-substituted-arylmethylthio, -arylmethylsulfinyl, and -arylmethylsulfonyl)methyl phosphorus esters used as insecticides” (priority 1975, dated 1976).

Usually mortality stands for the percentage killed.

Holding throughout (type): in vivo
Test [1] deals with Malaria Mosquito (Anopheles quadrimaculatus). Kind of test: H. Malaria Mosquito Adult Test. The following applies: 24 h, adults, 1 day, read-out: Percent Mortality, Malaria Mosquito. The method, then: Solutions of 65% acetone/35% water containing 10 ppm. of test compound are poured into wide-mouth 2-ounce jars, each containing a microscope slide. The slides are removed from the test solution with forceps and laid horizontally to dry on a wide-mouth 4-ounce bottle. When dry, they are placed in the same 4-ounce bottle and 10 4- to 5-day-old mosquitoes of mixed sexes are added to each bottle. A piece of cotton gauze held on by an elastic band serves as a lid, and wad of cotton soaked in 10% honey solution serves as food. Mortality counts are made after 1 day at 80° F., 50% R.H. (relative humidity) Data obtained with the above procedures are reported in Table II below.

Test [2] relates to Southern Armyworm (Prodenia eridania). Kind of test: D. Southern Armyworm leaf-dip test. The following applies: Spodoptera eridania, 48 h, read-out: Percent Mortality, Southern Armyworm. The method, then: Compounds are tested at 1000 and 100 ppm. in solution or suspension in 65 % acetone/35 % water. Sieva lima bean primary leaves are dipped for 3 seconds in the test solution and set in a hood on a screen to dry. When dry, each leaf is placed in a 4 -inch petri dish which has a moist filter paper in the bottom and ten third-instar armyworm larvae about 3/8 inch long. The dishes are covered and held at 80° F., and 60 % R.H. After 2 days, mortality counts and estimates of the amount of feeding are made. Compounds showing partial kill and/or inhibition of feeding are held an extra day for further observations.

Test [3] deals with Bean Aphid (Aphis fabae). Kind of test: C. Bean Aphid spray test. Conditions: 48 h, read-out: Percent Mortality, Bean Aphid. As for the experimental part: Compounds are tested at 100 , 10 and 1 ppm. in solution or suspension in 65 % acetone/35 % water. Two-inch fiber pots each containing a nasturtium plant 2 inches high and infested with about 150 aphids 2 days earlier, are placed on a turntable (4 RPM) and sprayed for two revolutions with a No. 154 DeVilbiss Atomizer at 20 psi. air pressure. The spray tip is held about 6 inches from the plants, and the spray is directed so as to give complete coverage of the aphids and the plants. The sprayed plants are laid on their sides on white enamel trays. Mortality estimates are made after holding for 2 days at 70° F. and 50% R.H.

The test system of test [4] is Two-spotted Spider Mite (Tetranychus urticae). Kind of test: E. Two-spotted Spider Mite plant-dip test. The following applies: 48 h, read-out: Percent Mortality, Two-spotted Spider Mite; for mortality at 100 ppm: 2 days. As for the experimental part:
Sieva lima bean plants with primary leaves 3 to 4 inches long are infested with about 100 adult mites per leaf 4 hours before use in this test. The mite and egg infested plants are dipped for 3 seconds in the same solutions used in the aphid test, and the plants set in the hood to dry. They are held for 2 days at 80° F., 60% R.H., and the adult mite mortality estimated on one leaf under a steroscopic microscope. The other leaf is left on the plant an additional 5 days and then examined at 10 X power to estimate the kill of eggs and of newly hatched nymphs, giving a measure of ovicidal and residual action, respectively.

Test [5] deals with Mexican Bean Beetle (Epilachna varivestis). Kind of test: F. Mexican Bean Beetle leaf-dip test. Conditions: 48 h, 2 days, read-out: Percent Mortality, Mexican Bean Beetle. The method, then:
Compounds to be tested are made up as 100 or 10 ppm. solutions in 65 % acetone/35 % water. Sieva lima bean leaves are dipped in the test solution and set in the hood to dry. When dry, they are placed in 4 -inch petri dishes which have a moist filter paper in the bottom, and 10 third-instar bean beetles are added to each dish. The dishes are covered and held at 80° F., 60 % R.H. After 2 days, mortality counts and estimates of the amount of feeding are made. Compounds showing kills greater than 75 % are further tested at tenfold dilutions in 65 % acetone/35 % water.

For test [6], the system named is Boll Weevil (Anthonomus grandis). Kind of test: B. Boll Weevil leaf-dip test. The following applies: 48 h, read-out: Percent Mortality, Boll Weevil. As for the experimental part:
Test compounds are prepared as 1000 ppm. solutions in 10 % acetone, 0.2 % Alrodyne 315 , and 89.8 % water. A tenfold dilution is made with 65 % acetone and 35 % water. The first or second true leaf of young cotton plants is dipped for 3 to 5 seconds in the test solution and placed in an exhaust hood to dry. When dry, each leaf is placed in a 4 -inch petri dish with a moist filter paper on the bottom. Ten adult boll weevils are removed from the stock culture and placed in the petri dish. The dishes are covered and held at 80° F. and 50 % R.H. After 2 days, mortality counts are made.

Test [7] concerns Western Potato Leafhopper (Empoasca abrupta). Kind of test: G. Western Potato Leafhopper plant-dip test. The following applies: 48 h, 2 days, read-out: Percent Mortality, Western Potato Leafhopper. The method, then: Sieva lima bean plants with the primary leaf expanded to 3 to 4 inches are dipped into 100 or 10 ppm. 50 % acetone/50 % water solutions and set in the hood to dry. A 1 -inch piece of the tip of a treated leaf is cut off and placed in a 4 -inch petri dish with a moist filter paper in the bottom. From 3 to 10 second-instar nymphs are tapped from the culture plants into the test dish and rapidly covered. Mortality counts are made after 2 days at 80° F., and 50 % R.H.

The test system of test [8] is Tarnished Plant Bug (Lygus lineolaris). Kind of test: A. Tarnished Plant Bug leaf-dip test. Conditions: 48 h, read-out: Percent Mortality, Tarnished plant Bug. The method, then: Test compounds are prepared as 1000 ppm. solutions in 10 % acetone, 0.2 % Alrodyne 315 , and 89.8 % water. A tenfold dilution is made with 65 % acetone and 35 % water. The primary leaves of Sieva lima bean plants are dipped for 3 to 5 seconds in the test solutions and placed in an exhaust hood to dry. When dry, each leaf is placed in a 4 -inch petri dish with a moist filter paper on the bottom. Ten adult Lygus bugs are aspirated from the stock culture and placed in the petri dish. The dishes are covered and held at 80° F. and 50 % R.H. After 2 days, mortality counts are made.

Like-named read-outs stand apart in the source and are kept apart here.

In the case of `COP(=S)(OC)SCSC(C)(C)c1ccc(C#N)cc1` [drawing 9], the values for the mortality at 10 ppm in test [1], in test [3] (2 days) and in test [7] were 60%, 100% and 100%, respectively. Further, the mortality at 100 ppm in test [2] (2 days) is 100%; in test [3] (2 days), 100%; in test [4], 100%; in test [5], 90%; in test [6] (100 ppm., 2 days), 90%; in test [7], 100%. For the same compound, the mortality at 100 ppm in test [8] (100 ppm., 2 days) stood at 0%. Further, the mortality at 1000 ppm in test [2] (1000 ppm., 2 days) stood at 100%. In test [3] (1 ppm., 2 days), the mortality at 1 ppm came to 100%. In test [4], the mortality at 300 ppm stood at 100%.

With `CCOP(=S)(OCC)SCSC(C)(C)c1cc(Cl)ccc1Cl` [drawing 11], the mortality at 10 ppm came out at 30% in test [1], 100% in test [3] (2 days) and 50% in test [7]. The mortality at 100 ppm in test [2] (2 days) was 100%; in test [3] (2 days) it was 100%; in test [4], 90%; in test [5], 0%; in test [6] (100 ppm., 2 days), 50%; in test [7], 100%. In addition, the mortality at 100 ppm in test [8] (100 ppm., 2 days) was 0%. Besides, the mortality at 1000 ppm in test [2] (1000 ppm., 2 days) amounted to 100%. Further, the mortality at 1 ppm in test [3] (1 ppm., 2 days) came out at 50%. In test [4], the mortality at 300 ppm came to 100%.

In the case of `COP(=S)(OC)SCSC(C)(C)c1cccc(Cl)c1Cl` [drawing 12], the mortality at 10 ppm in test [1] was 90%. Moreover, in test [2], the mortality at 1000 ppm was 100%. The mortality at 100 ppm in test [2] (2 days) was found to be 0%; in test [4] it was 0%; in test [5] it was 60%; in test [6], 0%; in test [7], 100%; in test [8], 0%. Also, the mortality at 1 ppm in test [3] stood at 75%. The mortality at 300 ppm in test [4] amounted to 0%.

In the case of `CCOP(=S)(OCC)SCSC(C)(CC)c1ccccc1` (centres unmarked) [drawing 14], the mortality at 10 ppm in test [1] worked out at 70%; in test [3] (2 days) it was 100%; in test [7], 0%. Further, the mortality at 100 ppm in test [2] (2 days) was found to be 0%; in test [3] (2 days) it was 100%; in test [4], 0%; in test [5] it was 0%; in test [6] (100 ppm., 2 days), 0%; in test [7], 100%. Moreover, the mortality at 100 ppm in test [8] (100 ppm., 2 days) was determined as 0%. For the same compound, the mortality at 1000 ppm in test [2] (1000 ppm., 2 days) was 100%. For the same compound, the mortality at 1 ppm in test [3] (1 ppm., 2 days) is 100%. In test [4], the mortality at 300 ppm was found to be 50%.

For `CCOP(=S)(OCC)SCSC(CC)(CC)c1ccccc1` [drawing 15], the mortality at 10 ppm in test [1] turned out to be 0%; in test [3] (2 days) it was 100%; in test [5] it was 0%. Further, the mortality at 100 ppm is 0% in test [2] (2 days); 100% in test [3] (2 days); 90% in test [5]; 0% in test [6] (100 ppm., 2 days); 0% in test [7]; 0% in test [8] (100 ppm., 2 days). Moreover, in test [2] (1000 ppm., 2 days), the mortality at 1000 ppm came to 100%. Further, the mortality at 1 ppm in test [3] (1 ppm., 2 days) is 0%. For the same compound, the mortality at 300 ppm in test [4] is 0%.

Take `CCCSP(=O)(OCC)SCSC(C)(C)c1ccccc1` (centres unmarked) [drawing 16]: the mortality at 10 ppm in test [1] worked out at 0%; in test [3] (2 days) it was 100%; in test [5], 80%; in test [7], 0%. The mortality at 100 ppm in test [2] (2 days) is 100%; in test [3] (2 days), 100%; in test [4], 100%; in test [5] it was 80%; in test [6] (100 ppm., 2 days) it was 0%; in test [7], 100%. Also, in test [8] (100 ppm., 2 days), the mortality at 100 ppm came out at 0%. Besides, in test [2] (1000 ppm., 2 days), the mortality at 1000 ppm was 100%. Further, the mortality at 1 ppm in test [3] (1 ppm., 2 days) was found to be 90%. Also, the mortality at 300 ppm in test [4] is 100%.

`CCOP(=S)(OCC)SCSC(C)(C)c1ccc(Cl)cc1` [drawing 18]: the mortality at 10 ppm in test [1] came out at 75%; in test [3] (2 days) it was 100%; in test [5], 40%; in test [7], 100%. Also, the mortality at 100 ppm was 100% in test [2] (2 days); 100% in test [3] (2 days); 100% in test [4]; 100% in test [5]; 0% in test [6] (100 ppm., 2 days); 100% in test [7]. Further, the mortality at 100 ppm in test [8] (100 ppm., 2 days) turned out to be 0%. Besides, the mortality at 1000 ppm in test [2] (1000 ppm., 2 days) turned out to be 100%. For the same compound, the mortality at 1 ppm in test [3] (1 ppm., 2 days) came to 90%. Besides, in test [4], the mortality at 300 ppm is 100%.

Turning to `COP(=S)(OC)SCSC(C)(C)c1ccc(Br)cc1` [drawing 19], the mortality at 10 ppm came to 75% in test [1], 100% in test [3] (2 days), 0% in test [5] and 0% in test [7]. Besides, the mortality at 100 ppm came to 100% in test [2] (2 days); 100% in test [3] (2 days); 100% in test [4]; 100% in test [6] (100 ppm., 2 days); 100% in test [7]; 40% in test [8] (100 ppm., 2 days). Moreover, the mortality at 1000 ppm in test [2] (1000 ppm., 2 days) amounted to 100%. Moreover, the mortality at 1 ppm in test [3] (1 ppm., 2 days) came out at 100%. Further, in test [4], the mortality at 300 ppm was determined as 100%.

Take `CCOP(=S)(OCC)SCSC(C)(C)c1ccc(Cl)c(Cl)c1` [drawing 20]: the mortality at 10 ppm in test [1] worked out at 0%; in test [3] (2 days) it was 90%; in test [5] it was 0%; in test [7], 0%. Also, the mortality at 100 ppm in test [2] (2 days) was determined as 100%; in test [3] (2 days), 100%; in test [4] it was 100%; in test [5], 30%; in test [6] (100 ppm., 2 days), 50%; in test [7], 100%. Also, the mortality at 100 ppm in test [8] (100 ppm., 2 days) was 0%. In addition, the mortality at 1000 ppm in test [2] (1000 ppm., 2 days) is 100%. Further, the mortality at 1 ppm in test [3] (1 ppm., 2 days) amounted to 0%. For the same compound, the mortality at 300 ppm in test [4] was 100%.
